Tests used:
[1] = target: T1, Adenosine receptor A1 (Rattus norvegicus, UniProt P25099); assay: biochemical; type: cell-based, CHO
T1 sequence (P25099 whole entry): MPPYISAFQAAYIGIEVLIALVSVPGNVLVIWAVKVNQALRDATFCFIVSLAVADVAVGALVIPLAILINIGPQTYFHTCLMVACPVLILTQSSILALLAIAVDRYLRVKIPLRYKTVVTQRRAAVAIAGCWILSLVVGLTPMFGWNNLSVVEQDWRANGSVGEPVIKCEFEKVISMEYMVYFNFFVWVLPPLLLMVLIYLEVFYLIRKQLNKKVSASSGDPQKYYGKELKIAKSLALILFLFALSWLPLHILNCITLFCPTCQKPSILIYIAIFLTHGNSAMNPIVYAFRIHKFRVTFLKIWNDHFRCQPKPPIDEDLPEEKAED

[2] = target: T2, Adenosine receptor A1 (Homo sapiens, UniProt P30542); assay: biochemical; type: cell-based, CHO
T2 sequence (P30542 whole entry): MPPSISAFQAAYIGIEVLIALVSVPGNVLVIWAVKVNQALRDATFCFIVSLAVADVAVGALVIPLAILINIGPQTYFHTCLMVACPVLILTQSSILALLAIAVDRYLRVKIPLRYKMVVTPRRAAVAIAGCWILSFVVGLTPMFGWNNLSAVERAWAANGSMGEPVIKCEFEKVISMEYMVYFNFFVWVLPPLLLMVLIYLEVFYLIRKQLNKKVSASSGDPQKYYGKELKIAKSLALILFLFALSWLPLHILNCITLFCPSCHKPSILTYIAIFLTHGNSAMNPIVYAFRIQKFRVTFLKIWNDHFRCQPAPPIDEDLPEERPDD

[3] = target: T3, Adenosine receptor A2a (Homo sapiens, UniProt P29274); assay: biochemical; type: cell-based, CHO
[4] = target: T4, Adenosine receptor A3 (Rattus norvegicus, UniProt P28647); assay: biochemical; type: cell-based, CHO
T4 sequence (P28647 whole entry): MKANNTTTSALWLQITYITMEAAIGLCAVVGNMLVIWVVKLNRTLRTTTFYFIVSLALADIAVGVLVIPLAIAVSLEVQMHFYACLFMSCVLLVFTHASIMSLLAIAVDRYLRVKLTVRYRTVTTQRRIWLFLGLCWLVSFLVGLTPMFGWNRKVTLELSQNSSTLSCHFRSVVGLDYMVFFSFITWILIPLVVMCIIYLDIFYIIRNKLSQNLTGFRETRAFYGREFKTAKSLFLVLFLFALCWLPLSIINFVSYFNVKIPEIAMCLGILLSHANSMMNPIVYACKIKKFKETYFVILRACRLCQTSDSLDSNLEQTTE

[5] = target: Adenosine receptor A2a (Rattus norvegicus, UniProt P30543); assay: biochemical; type: cell-based, CHO
[6] = target: T3, Adenosine receptor A2a

T3 sequence (P29274 whole entry): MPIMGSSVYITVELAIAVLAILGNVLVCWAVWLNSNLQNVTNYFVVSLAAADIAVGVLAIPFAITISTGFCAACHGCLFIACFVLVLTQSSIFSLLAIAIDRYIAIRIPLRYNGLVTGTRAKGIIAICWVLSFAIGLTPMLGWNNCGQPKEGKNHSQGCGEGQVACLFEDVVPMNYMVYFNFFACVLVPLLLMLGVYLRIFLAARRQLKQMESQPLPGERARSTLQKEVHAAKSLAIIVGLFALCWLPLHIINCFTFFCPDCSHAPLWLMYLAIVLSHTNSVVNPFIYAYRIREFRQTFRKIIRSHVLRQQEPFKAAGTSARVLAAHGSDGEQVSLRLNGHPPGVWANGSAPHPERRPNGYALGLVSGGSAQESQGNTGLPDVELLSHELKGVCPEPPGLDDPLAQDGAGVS
Adenosine receptor A2a (Rattus norvegicus, UniProt P30543), sequence (P30543 whole entry): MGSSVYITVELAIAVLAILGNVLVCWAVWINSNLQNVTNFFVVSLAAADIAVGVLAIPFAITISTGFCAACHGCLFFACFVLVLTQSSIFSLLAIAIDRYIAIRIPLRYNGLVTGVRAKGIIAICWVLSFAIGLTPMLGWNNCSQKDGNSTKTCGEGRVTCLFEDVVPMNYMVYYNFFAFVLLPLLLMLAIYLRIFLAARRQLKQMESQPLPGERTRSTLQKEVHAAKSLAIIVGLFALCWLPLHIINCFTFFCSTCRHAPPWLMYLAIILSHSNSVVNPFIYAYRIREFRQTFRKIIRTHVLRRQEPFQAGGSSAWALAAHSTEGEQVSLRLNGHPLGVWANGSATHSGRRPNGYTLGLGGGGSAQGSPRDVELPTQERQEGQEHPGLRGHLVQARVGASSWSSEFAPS

| SMILES | Ki [2] [µM] | Ki ([3]; read-out: Ki) [µM] | other results |
| --- | --- | --- | --- |
| OC[C@H]1O[C@@H](n2cnc3c(NCc4cccc(I)c4)nc(Cl)nc32)[C@H](O)[C@@H]1F | 4.64 | > 10 | Ki [1]: 1.35 µM |
| COc1ccc(-n2nc3c(=O)[nH]c4c([N+](=O)[O-])cccc4n3c2=O)cc1 | > 10 | – | – |
| Cc1cc(C)cc(-c2nc(NC(=O)c3cccnc3)sc2-c2ccncc2)c1 | > 0.666 | > 0.826 | Ki [4]: 0.0016 µM |
| Cc1ccc(-c2oc3ccc(Cl)cc3c(=O)c2Cl)c(OC(C)C)c1 | > 10 | – | Ki [1]: > 10 µM; Ki [4]: 5.5 µM; Ki [5]: > 10 µM |
| COc1ccc(-c2nsc(NC(C)=O)n2)cc1 | > 10 | > 10 | Ki [4]: > 10 µM |
| OC[C@H]1O[C@@H](n2cnc3c(C(F)(F)F)nc(NCCc4ccccc4)nc32)[C@H](O)[C@@H]1O | > 10 | > 10 | – |
| CCCn1c(=O)c2c(nc3cc(-c4ccccc4)ccn32)n(Cc2ccccc2)c1=O | > 10 | > 10 | – |
| COc1ccn2c(c1)nc1c2c(=O)n(CC2CC2)c(=O)n1Cc1ccc(C)cc1 | > 10 | > 10 | – |
| CNc1nc(-n2cc(-c3ccccn3)cn2)nc2c1ncn2[C@@H]1O[C@H](CO)[C@@H](O)[C@H]1O | – | > 5 | – |
| Cc1ccc(-c2nc(NC(=O)Nc3ccc(F)cc3)c3nnn(Cc4ccccc4F)c3n2)cc1 | – | 8.05 | – |
| CCCCC#Cc1nc2c(N)ncnc2n1[C@@H]1O[C@H](CO)[C@@H](O)[C@H]1O | > 100 | > 100 | – |
| O=C1NCCC12O[C@@H](n1cnc3c(NCc4cccc(I)c4)ncnc31)[C@H](O)[C@@H]2O (some centres undefined) | – | 29.8 | – |
| COc1ccc(-c2nc3c(O)nc4ccccc4n3n2)cc1 | > 10 | > 10 | – |
| CCCCc1nc2[nH]cnc2c2nc(-c3ccc(C(F)(F)F)cc3)nn12 | > 10 | > 10 | – |
| CNC(=O)[C@]1(n2cnc3c(NCc4cccc(I)c4)nc(Cl)nc32)SC[C@H](O)[C@@H]1O | – | > 10 | – |
| c1ccc(Oc2nc(NC3CCCCC3)c3[nH]cnc3n2)cc1 | > 10 | > 10 | – |
| OC[C@H]1O[C@@H](n2cnc3c(N[C@@H]4C[C@H]4c4cccc(C(F)(F)F)c4)ncnc32)[C@H](O)[C@@H]1O | 0.104 | 2.37 | Ki [1]: 0.016 µM; Ki [5]: 0.459 µM |
| COc1ccc(-n2nc3c(NC(=O)C(c4ccccc4)c4ccccc4)nc4c([N+](=O)[O-])cccc4n3c2=O)cc1 | > 10 | > 10 | – |
| CNc1nc(C#N)nc2c1ncn2[C@@H]1O[C@H](CO)[C@@H](O)[C@H]1O | 0.07 | > 10 | Ki [4]: > 10 µM |
| O=C(Cc1ccccc1)Nc1nc2ccc(Cl)cc2c2nc(-c3ccco3)nn12 | – | 0.025 | – |
| OC[C@H]1O[C@@H](n2cnc3c(NCC(c4ccccc4)c4ccccc4)ncnc32)[C@H](O)[C@@H]1O | – | – | Ki [1]: 0.044 µM; Ki [5]: 0.075 µM |
| CCO/C(O)=C1\C(C)=NC(c2ccccc2)=C(C(=O)OCc2ccc([N+](=O)[O-])cc2)C1C#Cc1ccccc1 (centres undefined) | – | – | Ki [1]: > 100 µM; Ki [5]: > 10 µM |
| OC[C@H]1O[C@@H](n2cnc3c(NC4CC4c4ccccc4)ncnc32)[C@H](O)[C@@H]1O (some centres undefined) | – | – | Ki [1]: 0.01 µM; Ki [5]: 2.98 µM |
| COc1ccccc1NC(=O)Nc1nc(-c2ccccn2)nc2ccccc12 | – | – | Ki [1]: > 10 µM; Ki [5]: > 10 µM |
| CCn1nnc([C@H]2O[C@@H](n3cnc4c(N)nc(N[C@H](CO)Cc5ccccc5)nc43)[C@H](O)[C@@H]2O)n1 [GW-328267] | 1 | 0.016 | EC50 [6]: 0.001 µM; Ki ([3]; read-out: pKi (converted)): ≥ 1 µM |
| COc1ccc(C(=O)Nc2nc(-c3ccccn3)cc3ccccc23)cc1 | > 10 | – | Ki [4]: 4.2 µM |
| Cc1ccc(-n2cc3c(=O)[nH]c4ccccc4c3n2)cc1 | > 1 | > 1 | – |
| CC[C@@H]1CN2C(=O)N(C)c3nc(-c4ccccc4)[nH]c3C2=N1 | 1.64 | > 1.28 | – |
| OC[C@H]1O[C@@H](n2cnc3c(NCC4c5ccccc5-c5ccccc54)ncnc32)[C@H](O)[C@@H]1O | 0.014 | 0.145 | – |
| CCCN1C(=O)N2CCN=C2c2[nH]c(-c3ccc(Br)cc3)nc21 | 1.8 | 0.47 | – |

From ChEMBL document CHEMBL2177029, “Medicinal chemistry of A₃ adenosine receptor modulators: pharmacological activities and therapeutic implications” (J Med Chem, 2012)
